Test results from US3966715A, “Herbicidal agents” (Bayer Aktiengesellschaft, priority 1966, dated 1976).

Assays:
Assay type in all cases: in vivo
Conditions in all cases: three weeks
[1] = system: Oats; experiment: Pre-emergence test, oats
Method: (§1) Solvent: 5 parts by weight acetone
(§2) 1 part by weight benzyloxypolyglycol ether
(§3) To produce a suitable preparation of the particular active compound, 1 part by weight of such active compound is mixed with the stated amount of solvent, the stated amount of emulsifier is then added and the resulting concentrate is thereafter diluted with water to the desired final concentration.
(§4) Seeds of the test plants are sown in normal soil and, after 24 hours, watered with the preparation of the given active compound. It is expedient to keep constant the amount of water per unit area. The concentration of the particular active compound in the preparation is of no importance, only the amount of active compound applied per unit area being decisive. After three weeks, the degree of damage to the test plants is determined and characterized by the values 0-5, which have the following meaning:
(§5) The procedure of Example 1 is repeated, and the particular active compounds tested, the amounts applied, and the results obtained can be seen from the following Table 1D: […]

[2] = system: Wheat; experiment: Post-emergence test, wheat
Method: as §1, §2, §3
(§6) Test plants which have a height of about 5--15 cm. are sprayed with the preparation of the given active compound until just dew moist. After three weeks, the degree of damage to the plants is determined and characterized by the values 0-5, which have the following meaning:
(§7) The procedure of Example 2 is repeated, and the particular active compounds tested, and amounts applied, and the results obtained can be seen from the following Table 2E: […]

[3] = system: Wheat; experiment: Pre-emergence test, wheat
Method: as §1, §2, §3, §4, §5

[4] = system: Oats; experiment: Post-emergence test, oats
Method: as §1, §2, §3, §6, §7

[5] = system: Cotton; experiment: Pre-emergence test, cotton
Method: as §1, §2, §3, §4, §5

[6] = system: Echinochloa; experiment: Post-emergence test, Echinochloa
Method: as §1, §2, §3, §6, §7

[7] = system: Stellaria; experiment: Post-emergence test, Stellaria
Method: as §1, §2, §3, §6, §7

CCNc1nnc(-c2ccccc2)c(=O)n1N [Compound 7, 3-ethylamino-4-amino-6-phenyl-1,2,4-triazine-5-one]
degree of damage, Oats ([1]; 2.5 kg/hectare): 4-5

CSc1nnc(CC(C)C)c(=O)n1N [Compound 11, 3-methylthio-4-amino-6-isobutyl-1,2,4-triazine-5-one]
degree of damage, Wheat ([2]; 2.4 Kg/hectare): 4-5

CCc1nnc(SC)n(N)c1=O [Compound 22, 3-methylthio-4-amino-6-ethyl-1,2,4-triazine-5-one]
degree of damage, Wheat ([3]; 5 kg/hectare): 4-5
degree of damage, Oats ([4]; 1.2 Kg/hectare): 4-5
degree of damage, Oats ([4]; 2.4 Kg/hectare): 4-5

CSc1nnc(CCC(C)C)c(=O)n1N [Compound 23, 3-methylthio-4-amino-6-isopentyl-1,2,4-triazine-5-one]
degree of damage, Wheat ([2]; 2.4 Kg/hectare): 4-5

CCSc1nnc(C(C)C)c(=O)n1N [Compound 148, 3-ethylthio-4-amino-6-isopropyl-1,2,4-triazine-5-one]
degree of damage, Cotton ([5]; 2.5 kg/hectare): 4-5
degree of damage, Cotton ([5]; 5 kg/hectare): 4-5
degree of damage, Wheat ([3]; 1.25 kg/hectare): 3-4
degree of damage, Echinochloa ([6]; 0.6 Kg/hectare): 4-5
degree of damage, Echinochloa ([6]; 1.2 Kg/hectare): 4-5
degree of damage, Oats ([1]; 1.25 kg/hectare): 4-5
degree of damage, Oats ([1]; 2.5 kg/hectare): 4-5
degree of damage, Oats ([1]; 5 kg/hectare): 4-5
degree of damage, Wheat ([2]; 2.4 Kg/hectare): 4-5
degree of damage, Stellaria ([7]; 2.4 Kg/hectare): 4-5

CCCc1nnc(SC)n(N)c1=O [Compound 153, 3-methylthio-4-amino-6-n-propyl-1,2,4-triazine-5-one]
degree of damage, Cotton ([5]; 1.25 kg/hectare): 4-5
degree of damage, Oats ([4]; 2.4 Kg/hectare): 4-5
degree of damage, Oats ([1]; 1.25 kg/hectare): 4-5
degree of damage, Oats ([1]; 2.5 kg/hectare): 4-5

C#CCSc1nnc(C(C)C)c(=O)n1N [Compound 158, 3-propargylthio-4-amino-6-isopropyl-1,2,4-triazine-5-one]
degree of damage, Stellaria ([7]; 1.2 Kg/hectare): 4-5

CNc1nnc(C(C)(C)C)c(=O)n1N [Compound 175, 3-methylamino-4-amino-6-tert.-butyl-1,2,4-triazine-5-one]
degree of damage, Oats ([4]; 0.6 Kg/hectare): 4-5
degree of damage, Oats ([4]; 1.2 Kg/hectare): 4-5
degree of damage, Echinochloa ([6]; 0.6 Kg/hectare): 4-5
degree of damage, Echinochloa ([6]; 1.2 Kg/hectare): 4-5
degree of damage, Wheat ([2]; 2.4 Kg/hectare): 4-5

CCNc1nnc(C(C)(C)C)c(=O)n1N [Compound 176, 3-ethylamino-4-amino-6-tert.-butyl-1,2,4-triazine-5-one]
degree of damage, Echinochloa ([6]; 2.4 Kg/hectare): 4-5
degree of damage, Stellaria ([7]; 0.6 Kg/hectare): 4-5

CCCNc1nnc(C(C)C)c(=O)n1N [Compound 178, 3-n-propylamino-4-amino-6-isopropyl-1,2,4-triazine-5-one]
degree of damage, Wheat ([3]; 5 kg/hectare): 2-3

CCCCNc1nnc(C2CCCCC2)c(=O)n1N [Compound 182, 3-n-butylamino-4-amino-6-cyclohexyl-1,2,4-triazine-5-one]
degree of damage, Wheat ([3]; 40 Kg/hectare): 4-5
degree of damage, Echinochloa ([6]; 10 Kg/hectare): 4-5
degree of damage, Oats ([1]; 40 Kg/hectare): 4-5

CSc1nnc(C(C)(C)C)c(=O)n1NC(O)C(Cl)(Cl)Cl (stereo not drawn) [Compound 192, 3-methylthio-4-(β-trichloro-α-hydroxy-ethyl)-amino-6-tert.-butyl-1,2,4-triazine-5-one]
degree of damage, Cotton ([5]; 1.25 kg/hectare): 4-5
degree of damage, Cotton ([5]; 2.5 kg/hectare): 4-5
degree of damage, Oats ([4]; 2.4 Kg/hectare): 4-5
degree of damage, Oats ([1]; 1.25 kg/hectare): 4-5
degree of damage, Oats ([1]; 2.5 kg/hectare): 4-5

CSc1nnc(C(C)C)c(=O)n1N=CC1CCCCC1 [Compound 197, 3-methylthio-4-(hexahydrobenzylidene-amino)-6-isopropyl-1,2,4-triazine-5-one]
degree of damage, Wheat ([3]; 1.25 kg/hectare): 4-5
degree of damage, Echinochloa ([6]; 1.2 Kg/hectare): 4-5
degree of damage, Wheat ([2]; 1.2 Kg/hectare): 4-5

CSc1nnc(C(C)C)c(=O)n1N=Cc1ccccc1 [Compound 198, 3-methylthio-4-(benzylidene-amino)-6-isopropyl-1,2,4-trizaine-5-one]
degree of damage, Wheat ([3]; 1.25 kg/hectare): 4-5
degree of damage, Oats ([4]; 0.6 Kg/hectare): 3-4
degree of damage, Oats ([4]; 2.4 Kg/hectare): 4-5
degree of damage, Stellaria ([7]; 0.6 Kg/hectare): 4-5

CSc1nnc(C(C)C)c(=O)n1N=Cc1ccc(Cl)cc1 [Compound 201, 3-methylthio-4-(4'-chloro-benzylidene-amino)-6-isopropyl-1,2,4-triazine-5-one]
degree of damage, Wheat ([3]; 1.25 kg/hectare): 4-5
degree of damage, Echinochloa ([6]; 1.2 Kg/hectare): 4-5
degree of damage, Stellaria ([7]; 1.2 Kg/hectare): 4-5

CSc1nnc(C(C)C)c(=O)n1N=Cc1ccco1 [Compound 203, 3-methylthio-4-(furfur-2'-ylidene-amino)-6-isopropyl-1,2,4-triazine-5-one]
degree of damage, Cotton ([5]; 1.25 kg/hectare): 4-5
degree of damage, Wheat ([2]; 1.2 Kg/hectare): 4-5
degree of damage, Stellaria ([7]; 2.4 Kg/hectare): 4-5

CSc1nnc(C(C)C)c(=O)n1N=C1CCCCC1 [Compound 204, 3-methylthio-4-(cyclohexylidene-amino)-6-isopropyl-1,2,4-triazine-5-one]
degree of damage, Wheat ([3]; 1.25 kg/hectare): 4-5
degree of damage, Stellaria ([7]; 0.6 Kg/hectare): 4-5

CSc1nnc(C(C)C)c(=O)n1N=Cc1ccccc1C [Compound 206, 3-methylthio-4-(2'-methyl-benzylidene-amino)-6-isopropyl-1,2,4-triazine-5-one]
degree of damage, Cotton ([5]; 1.25 kg/hectare): 4-5
degree of damage, Oats ([4]; 2.4 Kg/hectare): 4-5
degree of damage, Wheat ([2]; 1.2 Kg/hectare): 3-4
degree of damage, Stellaria ([7]; 0.6 Kg/hectare): 4-5

CSc1nnc(C(C)C)c(=O)n1N=Cc1ccc([N+](=O)[O-])cc1 [Compound 210, 3-methylthio-4-(4'-nitro-benzylidene-amino)-6-isopropyl-1,2,4-triazine-5-one]
degree of damage, Cotton ([5]; 2.5 kg/hectare): 4-5
degree of damage, Cotton ([5]; 5 kg/hectare): 4-5
degree of damage, Oats ([1]; 2.5 kg/hectare): 4-5
degree of damage, Oats ([1]; 5 kg/hectare): 4-5

CSc1nnc(C(C)(C)C)c(=O)n1N=CC(C)C [Compound 215, 3-methylthio-4-(isobutylidene-amino)-6-tert.-butyl-1,2,4-triazine-5-one]
degree of damage, Wheat ([2]; 1.2 Kg/hectare): 4-5

CCC=Nn1c(SC)nnc(C(C)C)c1=O [Compound 216, 3-methylthio-4-(n-propylidene-amino)-6-isopropyl-1,2,4-triazine-5-one]
degree of damage, Wheat ([3]; 1.25 kg/hectare): 4-5

CCCC=Nn1c(SC)nnc(C(C)C)c1=O [Compound 217, 3-methylthio-4-(n-butylidene-amino)-6-isopropyl-1,2,4-triazine-5-one]
degree of damage, Wheat ([3]; 1.25 kg/hectare): 4-5

CSc1nnc(C(C)(C)C)c(=O)n1N=C(C)C [Compound 220, 3-methylthio-4-(prop-2'-ylidene-amino)-6-tert.-butyl-1,2,4-triazine-5-one]
degree of damage, Wheat ([3]; 1.25 kg/hectare): 4-5

CSc1nnc(C2CCCCC2)c(=O)n1N=C(C)C [Compound 224, 3-methylthio-4-(prop-2'-ylidene-amino)-6-cyclohexyl-1,2,4-triazine-5-one]
degree of damage, Wheat ([3]; 1.25 kg/hectare): 4-5
degree of damage, Oats ([4]; 1.2 Kg/hectare): 4-5
degree of damage, Wheat ([2]; 1.2 Kg/hectare): 4-5
degree of damage, Wheat ([2]; 2.4 Kg/hectare): 4-5

CSc1nnc(C2CCCCC2)c(=O)n1N=CC1CCCCC1 [Compound 228, 3-methylthio-4-(hexahydrobenzylidene-amino)-6-cyclohexyl-1,2,4-triazine-5-one]
degree of damage, Wheat ([3]; 5 kg/hectare): 4-5
degree of damage, Oats ([4]; 1.2 Kg/hectare): 4-5
degree of damage, Echinochloa ([6]; 0.6 Kg/hectare): 4-5
degree of damage, Oats ([1]; 5 kg/hectare): 4-5
degree of damage, Wheat ([2]; 0.6 Kg/hectare): 4-5
degree of damage, Wheat ([2]; 1.2 Kg/hectare): 4-5

CNc1nnc(C(C)(C)C)c(=O)n1N=C(C)C [Compound 232, 3-methylamino-4-(prop-2'-ylidene-amino)-6-tert.-butyl-1,2,4-triazine-5-one]
degree of damage, Oats ([1]; 1.25 kg/hectare): 4-5
degree of damage, Wheat ([2]; 1.2 Kg/hectare): 4-5

CNn1c(OC)nnc(-c2ccccc2)c1=O [Compound 234, 3-methoxy-4-methylamino-6-phenyl-1,2,4-triazine-5-one]
degree of damage, Oats ([1]; 5 kg/hectare): 4-5
